Data published in patent US20240018158A1, “BRM TARGETING COMPOUNDS AND ASSOCIATED METHODS OF USE” (Prelude Therapeutics Incorporated, priority 2020, published 2024).

Experiments:
[1] = system: SMARCA4 mutated cancer cells; settings: Vangamudi et al. Cancer Res 2015; cited from earlier work
[2] = target: SMARCA4 (Homo sapiens (Human), UniProt P51532); assay: In Cell Western SMARCA4 degradation in NCIH520 cells; assay type: cell-based; settings: for DC50: H520 cells, overnight, read-out: DC50 (SM4_H520) SMARCA4 degradation potency; for Dmax: NCI-H520, overnight, read-out: Dmax % (SM4_H520) maximum SMARCA4 degradation within the concentrations tested
Procedure: (§1) Compound titration and cell culture: Compounds were dissolved in DMSO to make 10 mM stock and 3-fold series dilutions were further conducted keeping the highest concentration 10 μM. NCIH1693 and NCIH520 cells were maintained in PRMI 1640 medium (Corning Cellgro, Catalog #:10-040-CV) supplemented with 10% v/v FBS (GE Healthcare, Catalog #: SH30910.03) by splitting 1:3 twice a week.
(§2) To determine SMACRA2 and SMARCA4 protein degradation DC50 values in NCIH1693 and NCIH520 cells by In Cell Western (ICW) analysis. Cells were trypsinized and 30 thousand cells/well were seeded into 384-well plates and were allowed to grow for 5 hours at 37° C. Eight-point, 3-fold serial dilutions of compounds from 10 mM stocks were added to the cells (using digital Dispenser D300-Tecan, keeping highest concentration 10 μM and normalizing with DMSO at the highest dispensed volume). Plates were incubated at 37° C. for overnight (maximum 18 hours). Cells incubated with DMSO was used as a vehicle control.
(§3) To perform In Cell Western, medium was removed from all the wells leaving cells attached to the surface. After removing the medium, cells were fixed within the plates with 40 μL of 4% formaldehyde by incubating at room temperature for 30 minutes, and then permeabilized with wash buffer (1×PBS with 0.1% Triton X-100) by washing the plate 5 times with 50 μL/well. Before labeling with primary antibodies, cells were blocked with 30 μL/well of blocking buffer (Licor Odyssey blocking buffer PBS #927-40000) for 30 minutes at room temperature. To measure SMARCA2 or SMARCA4 proteins, cells were labeled with 20 μL/well of anti SMARCA2 or SMACRA4 antibodies (Cell Signaling BRM #11966S 1:1000, Cell Signaling BRG #49360S 1:1000) diluted in Li-Cor Odyssey blocking buffer-PBS #927-40000, followed by overnight incubation at 4° C.
(§4) The next day, plates were washed 5×5 minutes with 50 μL/well of washing buffer to remove all the excess primary antibody and then 20 μL from a mixture of secondary antibody and fluorescent DNA specific dye (Goat anti rabbit 1:500 IRDye-800CW #92632211, and DRAQ5™ 1:2000-#ab108410) was added to each well. Plates were incubated for 1 hour at room temperature with gentle rocking. Cells were washed 5 times with 50 μL/well wash buffer, followed by one last wash with DI water, followed by 10 mins drying at 37° C. oven before scanning. Plates were scanned using Li-Cor Odyssey CLx imaging system to acquire integrated intensities at 700 nm and 800 nm. SMARCA signals were normalized to total cell count and then these normalized values were used to calculate the percent degradation relative to DMSO control and maximum inhibition. DC50s were calculated by using the GraphPad Prism4 program based on sigmoidal dose response equation ([Inhibitor] vs. normalized response−Variable slope).

[3] = target: bromodomain of SMARCA2 protein (Homo sapiens (Human), UniProt P40337+P51531); assay: SMARCA2 bromodomain ternary binding TR-FRET assay (with VCB); settings: with saturating VCB (5 μM); read-out: IC50 (SM 2_T) ternary binding potency in SMARCA2 FRET assay
Description: Recombinant bromodomain of SMARCA2 protein was purchased from Active Motif (Catalog #: 31449). VHL/ElonginB/ElonginC (VCB)N-terminal his6-tagged VHL (“his6” disclosed as SEQ ID NO: 4) (uniprot accession number P40337; M54-D213; […] […] […] (SEQ ID NO: 1)), Elongin B (Q15370; M1-K104; […] […] (SEQ ID NO: 2)), Elongin C (Q15369; M17-C112; […] […] (SEQ ID NO: 3)) complex were co-expressed and the complex was purified by Ni-affinity, TEV protease was then used to remove his6-tagged (SEQ ID NO: 4), and the complex was further purified by size-exclusion chromatography before use.
The inhibitory activity of compounds was evaluated in vitro using TR-FRET assay with white 384-well low volume microplate (PerkinElmer ProxiPlate Plus), in which the compound competes the same binding site with the ligand, and thus lead to dose-dependent TR-FRET signal reduction. The cooperativity of the compounds for ternary complex formation with E3 ligase was evaluated in the absence or presence of saturating concentrations of VCB. Testing compounds were dissolved in DMSO at […] and tested in 9-dose IC50. The assay mixture was prepared by mixing SMARCA2 (10 nM final), biotinylated probe (25 nM final), and assay buffer or VCB (5 μM) in 1×AlphaLISA Epigenetics Buffer (PerkinElmer AL008F) with 1 mM TCEP. The compounds in DMSO were added to each well in 3-fold serial dilution by dispenser (TECAN D300E) and incubate for 20 minutes at room temperature before addition of detection reagents, Lance Eu W1024 anti-6×His (0.6 nM final, PerkinElmer AD0110) and Streptavidin Surelight APC (6 nM final, PerkinElmer CR130-100). The plate was then sealed and further incubated at 4° C. overnight in dark, and then was read by Envision multimode plate reader (PerkinElmer, 2102-0010). The ratio of florescence signal at 665/620 was used in data analysis. Percentage inhibition was calculated by % inhibition=100×(FDMSO-F)/(FDMSO-FPC), in which FDMSO is DMSO control, and FPC is positive control. IC50 values were determined from dose response curve by fitting the percent inhibition against compound concentration using GraphPad Prism software.

[4] = system: NCIH1693 cells; assay: Cell proliferation assay (ATPlite) in NCIH1693 cells; assay type: cell-based; settings: Homo sapiens, NCI-H1693, 96 h, day 4, read-out: IC50 (PRO_H1693) antiproliferation potency
Procedure: One thousand NCIH1693 or NCIH1703 cells per well were seeded in 96 well plate and incubated at 37° C. for 5 hrs. A series of three-fold dilution of compounds from 10 mM stock concentration were added to the cells by using digital Dispenser D300-Tecan, keeping highest concentration 10 μM and normalizing with DMSO at the highest dispensed volume). Cells incubated with DMSO was used as a vehicle control. After compound treatment plates were incubated at 37° C. for 4 days and cell viability was measured by measuring ATP content from the cell lysate using ATPlite Luminescence assay system (PerkinElmer Cat. no #6016941). Percentage of viable cells, relative to DMSO vehicle control and maximum inhibition, was calculated and plotted in Graphpad Prism ([Inhibitor] vs. normalized response−Variable slope) to determine cell proliferation IC50 values on day 4.

[5] = target: SMARCA2 (Homo sapiens (Human), UniProt P51531); assay: In Cell Western SMARCA2 degradation in NCIH520 cells; assay type: cell-based; settings: for DC50: H520 cells, overnight, read-out: DC50 (SM2_H520) SMARCA2 degradation potency; for Dmax: NCI-H520, overnight, read-out: Dmax % (SM2_H520) maximum SMARCA2 degradation within the concentrations tested
Procedure: as §1, §2, §3, §4

Chain of SMARCA4 (P51532 whole entry): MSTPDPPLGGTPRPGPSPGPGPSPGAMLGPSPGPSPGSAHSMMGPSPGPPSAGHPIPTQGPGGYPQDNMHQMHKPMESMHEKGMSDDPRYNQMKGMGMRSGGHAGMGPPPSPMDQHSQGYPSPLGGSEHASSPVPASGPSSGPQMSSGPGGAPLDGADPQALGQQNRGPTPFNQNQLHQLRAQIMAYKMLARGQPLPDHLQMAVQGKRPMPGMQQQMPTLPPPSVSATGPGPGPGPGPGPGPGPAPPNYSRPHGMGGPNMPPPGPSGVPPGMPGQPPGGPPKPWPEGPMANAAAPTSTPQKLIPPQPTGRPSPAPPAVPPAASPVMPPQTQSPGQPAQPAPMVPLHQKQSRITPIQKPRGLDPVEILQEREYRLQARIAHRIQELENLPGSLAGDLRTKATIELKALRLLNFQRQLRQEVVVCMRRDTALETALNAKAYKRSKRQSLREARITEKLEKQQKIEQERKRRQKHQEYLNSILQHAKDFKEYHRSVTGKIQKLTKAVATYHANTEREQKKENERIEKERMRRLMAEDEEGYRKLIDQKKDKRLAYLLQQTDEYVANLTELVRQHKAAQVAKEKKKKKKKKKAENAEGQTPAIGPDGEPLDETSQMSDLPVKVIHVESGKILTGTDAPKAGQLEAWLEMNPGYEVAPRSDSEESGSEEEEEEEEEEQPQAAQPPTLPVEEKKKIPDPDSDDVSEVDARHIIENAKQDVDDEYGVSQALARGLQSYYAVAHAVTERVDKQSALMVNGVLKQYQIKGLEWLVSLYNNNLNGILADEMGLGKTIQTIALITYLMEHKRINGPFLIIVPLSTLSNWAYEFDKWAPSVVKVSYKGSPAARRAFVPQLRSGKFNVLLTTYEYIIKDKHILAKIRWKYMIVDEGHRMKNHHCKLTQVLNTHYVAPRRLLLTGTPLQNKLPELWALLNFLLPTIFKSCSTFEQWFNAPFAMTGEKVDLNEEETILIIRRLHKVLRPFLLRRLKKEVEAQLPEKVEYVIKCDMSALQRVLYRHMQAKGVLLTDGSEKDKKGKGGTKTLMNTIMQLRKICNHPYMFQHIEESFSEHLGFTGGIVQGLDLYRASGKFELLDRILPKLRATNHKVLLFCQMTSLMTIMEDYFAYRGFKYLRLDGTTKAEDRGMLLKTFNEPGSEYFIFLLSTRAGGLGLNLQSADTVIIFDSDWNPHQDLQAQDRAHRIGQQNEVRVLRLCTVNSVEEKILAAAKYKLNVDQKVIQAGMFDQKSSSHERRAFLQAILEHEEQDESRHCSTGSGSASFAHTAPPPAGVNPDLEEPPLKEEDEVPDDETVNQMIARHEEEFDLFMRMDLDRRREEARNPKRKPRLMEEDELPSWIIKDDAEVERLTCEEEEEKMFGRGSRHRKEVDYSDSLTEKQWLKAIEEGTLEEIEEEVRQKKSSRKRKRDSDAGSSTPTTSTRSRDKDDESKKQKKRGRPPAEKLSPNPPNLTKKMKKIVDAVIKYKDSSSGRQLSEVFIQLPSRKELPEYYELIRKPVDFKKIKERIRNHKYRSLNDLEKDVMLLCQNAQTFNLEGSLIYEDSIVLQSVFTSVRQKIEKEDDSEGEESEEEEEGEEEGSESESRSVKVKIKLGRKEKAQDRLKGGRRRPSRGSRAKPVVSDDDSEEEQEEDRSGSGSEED
Chain of SMARCA2 (P51531 whole entry): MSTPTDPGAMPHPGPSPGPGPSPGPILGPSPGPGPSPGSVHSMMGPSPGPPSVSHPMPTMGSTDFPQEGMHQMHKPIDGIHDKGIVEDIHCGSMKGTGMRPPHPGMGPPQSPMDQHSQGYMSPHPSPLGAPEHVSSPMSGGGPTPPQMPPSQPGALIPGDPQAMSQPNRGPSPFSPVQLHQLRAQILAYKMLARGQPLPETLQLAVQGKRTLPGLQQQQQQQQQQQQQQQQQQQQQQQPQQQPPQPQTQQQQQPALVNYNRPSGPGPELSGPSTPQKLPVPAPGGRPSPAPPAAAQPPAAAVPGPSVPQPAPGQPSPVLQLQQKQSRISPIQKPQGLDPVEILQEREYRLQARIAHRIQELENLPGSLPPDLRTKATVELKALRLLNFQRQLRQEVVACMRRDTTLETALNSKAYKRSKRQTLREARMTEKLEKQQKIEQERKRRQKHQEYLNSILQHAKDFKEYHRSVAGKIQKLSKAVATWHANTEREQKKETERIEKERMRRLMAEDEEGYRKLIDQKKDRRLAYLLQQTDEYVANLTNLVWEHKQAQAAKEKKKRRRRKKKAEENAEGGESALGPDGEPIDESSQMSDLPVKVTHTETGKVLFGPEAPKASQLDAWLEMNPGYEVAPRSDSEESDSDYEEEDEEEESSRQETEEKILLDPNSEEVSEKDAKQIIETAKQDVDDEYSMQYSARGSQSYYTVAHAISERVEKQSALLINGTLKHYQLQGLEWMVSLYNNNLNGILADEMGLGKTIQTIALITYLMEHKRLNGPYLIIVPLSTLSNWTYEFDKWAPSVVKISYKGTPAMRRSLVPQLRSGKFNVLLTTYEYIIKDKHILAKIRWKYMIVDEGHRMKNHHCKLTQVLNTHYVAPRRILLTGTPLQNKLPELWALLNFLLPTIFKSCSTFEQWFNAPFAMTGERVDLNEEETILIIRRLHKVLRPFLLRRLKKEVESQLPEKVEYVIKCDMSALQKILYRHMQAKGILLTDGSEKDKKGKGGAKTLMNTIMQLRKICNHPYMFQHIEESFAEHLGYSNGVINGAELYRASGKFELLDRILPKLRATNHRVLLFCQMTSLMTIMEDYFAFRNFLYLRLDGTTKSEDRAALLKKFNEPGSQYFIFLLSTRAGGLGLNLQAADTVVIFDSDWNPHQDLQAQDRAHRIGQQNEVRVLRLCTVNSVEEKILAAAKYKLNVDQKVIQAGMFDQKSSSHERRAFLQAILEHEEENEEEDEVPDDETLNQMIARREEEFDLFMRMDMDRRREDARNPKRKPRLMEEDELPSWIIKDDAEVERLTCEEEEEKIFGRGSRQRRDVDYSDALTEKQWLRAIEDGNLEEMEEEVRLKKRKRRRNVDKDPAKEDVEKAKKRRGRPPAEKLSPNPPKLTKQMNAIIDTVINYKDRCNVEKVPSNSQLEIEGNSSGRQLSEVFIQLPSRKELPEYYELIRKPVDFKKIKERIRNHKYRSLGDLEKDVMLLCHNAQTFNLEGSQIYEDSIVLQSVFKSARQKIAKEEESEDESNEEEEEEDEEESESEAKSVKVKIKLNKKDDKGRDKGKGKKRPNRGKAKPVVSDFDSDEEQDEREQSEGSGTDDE
Chain of bromodomain of SMARCA2 protein (P51531 whole entry, looked up): as the sequence (P51531 whole entry) above
Chain of bromodomain of SMARCA2 protein (P40337 whole entry, looked up): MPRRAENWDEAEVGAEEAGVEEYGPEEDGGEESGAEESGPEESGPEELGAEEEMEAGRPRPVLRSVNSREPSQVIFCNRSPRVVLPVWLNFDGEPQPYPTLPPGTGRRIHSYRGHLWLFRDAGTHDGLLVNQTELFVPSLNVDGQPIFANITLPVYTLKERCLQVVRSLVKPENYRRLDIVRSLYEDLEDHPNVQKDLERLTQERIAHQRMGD
Chain of bromodomain of SMARCA2 protein (Q15370 whole entry partner, looked up): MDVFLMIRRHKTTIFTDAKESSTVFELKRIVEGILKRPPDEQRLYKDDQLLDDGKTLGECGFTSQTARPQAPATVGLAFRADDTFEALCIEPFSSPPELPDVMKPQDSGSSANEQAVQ
Chain of bromodomain of SMARCA2 protein (Q15369 whole entry partner, looked up): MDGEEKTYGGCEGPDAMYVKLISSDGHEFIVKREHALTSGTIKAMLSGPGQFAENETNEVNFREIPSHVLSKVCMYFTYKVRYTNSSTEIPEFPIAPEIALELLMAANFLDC

Question: With `O=C(/C=C/N1C[C@H]2C[C@@H]1CN2c1ccccn1)c1ccccc1O` [PFI-3] as the compound, how does the “effects on cell proliferation inhibition” value [1] read?
Answer: none to minor effects

Question: Which DC50 [2] does the source give for `Cc1ncsc1-c1ccc([C@H](C)NC(=O)[C@@H]2C[C@@H](O)CN2C(=O)[C@@H](c2cc(OCCN3CCN4c5cc(-c6ccccc6O)nnc5NCC4C3)no2)C(C)C)cc1` (stereo partly drawn) [Example 4, (2S,4R)-4-hydroxy-1-((2R)-2-(3-(2-(2-(2-hydroxyphenyl)-5,6,6a,7,9,10-hexahydro-8H-pyrazino[1′,2′:4,5]pyrazino[2,3-c]pyridazin-8-yl)ethoxy)isoxazol-5-yl)-3-methylbutanoyl)-N-((S)-1-(4-(4-methyl-1λ^3,3λ^2-thiazol-5-yl)phenyl)ethyl)pyrrolidine-2-carboxamide] here?
Answer: 100 to 1000 nM

Question: And the Dmax [2]?
Answer: > 75%

Question: What about the IC50 [3] of the same compound?
Answer: < 100 nM

Question: And the IC50 [4]?
Answer: < 100 nM

Question: What about the DC50 [5] of the same compound?
Answer: < 100 nM

Question: And the Dmax [5]?
Answer: > 75%

Question: Which DC50 [2] does the source give for `Cc1ncsc1-c1ccc([C@H](C)NC(=O)[C@@H]2C[C@@H](O)CN2C(=O)[C@@H](NC(=O)CN2CCN3c4cc(-c5ccccc5O)nnc4NCC3C2)C(C)(C)C)cc1` (single isomer, unassigned) [Example 1a] here?
Answer: 100 to 1000 nM

Question: What about the Dmax [2] of the same compound?
Answer: > 75%

Question: What about the IC50 [3] of the same compound?
Answer: 100 to 1000 nM

Question: And the IC50 [4]?
Answer: 100 to 1000 nM

Question: What about the DC50 [5] of the same compound?
Answer: 100 to 1000 nM

Question: What about the Dmax [5] of the same compound?
Answer: > 75%
